Calls of active or inactive are those of the source. No cut-off for these calls is given here.
system: HeLa; assay: Cytotoxicity against human HeLa cells after 48 hrs by MTT assay; assay type: functional, cell-based; settings: not given

SMILES	IC50
COc1ccc(/C(=C\c2ccc(OCc3ccccc3)c(OC)c2)C(=O)O[C@H]2c3cc4c(cc3[C@@H](c3cc(OC)c(OC)c(OC)c3)[C@H]3C(=O)OC[C@@H]32)OCO4)cc1OC	15.9 µM
COc1ccc(/C(=C\c2ccc(OC(C)=O)c(OC)c2)C(=O)O[C@H]2c3cc4c(cc3[C@@H](c3cc(OC)c(OC)c(OC)c3)[C@H]3C(=O)OC[C@@H]32)OCO4)cc1OC	2.3 µM
COc1cccc2c1C(=O)c1c(O)c3c(c(O)c1C2=O)C[C@@](O)(C(=O)CO)C[C@@H]3O[C@H]1C[C@H](N)[C@H](O)[C@H](C)O1 [DOXORUBICIN]	0.9 µM
COc1cc([C@@H]2c3cc4c(cc3[C@H](OC(=O)C#Cc3ccccc3)[C@H]3COC(=O)[C@H]23)OCO4)cc(OC)c1OC	1.12 µM
COc1cc([C@@H]2c3cc4c(cc3[C@H](OC(=O)c3ccccc3Cl)[C@H]3COC(=O)[C@H]23)OCO4)cc(OC)c1OC	17.1 µM
COc1ccc(/C(=C\c2ccc(OC)c(OCc3ccccc3)c2)C(=O)O[C@H]2c3cc4c(cc3[C@@H](c3cc(OC)c(OC)c(OC)c3)[C@H]3C(=O)OC[C@@H]32)OCO4)cc1OC	14.3 µM
CC#CC(=O)O[C@H]1c2cc3c(cc2[C@@H](c2cc(OC)c(OC)c(OC)c2)[C@H]2C(=O)OC[C@@H]21)OCO3	1 µM

biological target: T1, Tubulin (Homo sapiens) (UniProt P68371+Q9H4B7+P0DPH7+P68366+Q13509+Q71U36+P04350+Q3ZCM7+P07437+P68363+Q9BQE3+Q6PEY2+Q13885+Q9BVA1+Q9BUF5); assay: Inhibition of tubulin polymerization (unknown origin) at 5 uM measured every min for 1 hr by fluorescence-based assay; assay type: protein-complex assay; parameters: scale not given: the % may be the effect or the level left; settings: not given

SMILES	Activity
COc1cc([C@@H]2c3cc4c(cc3[C@H](O)[C@H]3COC(=O)[C@H]23)OCO4)cc(OC)c1OC [PODOFILOX]	66.6%
COc1ccc(/C(=C\c2ccc(OC(C)=O)c(OC)c2)C(=O)O[C@H]2c3cc4c(cc3[C@@H](c3cc(OC)c(OC)c(OC)c3)[C@H]3C(=O)OC[C@@H]32)OCO4)cc1OC	51.2%
COc1cc([C@@H]2c3cc4c(cc3[C@H](OC(=O)C#Cc3ccccc3)[C@H]3COC(=O)[C@H]23)OCO4)cc(OC)c1OC	53.8%
COc1ccc(/C=C\c2cc(OC)c(OC)c(OC)c2)cc1O	69.4%
CC#CC(=O)O[C@H]1c2cc3c(cc2[C@@H](c2cc(OC)c(OC)c(OC)c2)[C@H]2C(=O)OC[C@@H]21)OCO3	62.1%

biological target: T1, Tubulin (Homo sapiens); assay: Inhibition of tubulin polymerization in human DU145 cells assessed as reduction of Akt phosphorylation at Ser473 at 2 to 5 uM after 48 hrs by Western blotting analysis; assay type: cell-based; settings: DU-145

SMILES	Activity
COc1ccc(/C(=C\c2ccc(OC(C)=O)c(OC)c2)C(=O)O[C@H]2c3cc4c(cc3[C@@H](c3cc(OC)c(OC)c(OC)c3)[C@H]3C(=O)OC[C@@H]32)OCO4)cc1OC	Dose-dependent effect

system: DU-145; assay: Cytotoxicity against human DU145 cells after 48 hrs by MTT assay; assay type: functional, cell-based; settings: DU-145, 48 h

SMILES	IC50
COc1ccc(/C(=C\c2ccc(OCc3ccccc3)c(OC)c2)C(=O)O[C@H]2c3cc4c(cc3[C@@H](c3cc(OC)c(OC)c(OC)c3)[C@H]3C(=O)OC[C@@H]32)OCO4)cc1OC	13.4 µM
COc1cc([C@@H]2c3cc4c(cc3[C@H](O)[C@H]3COC(=O)[C@H]23)OCO4)cc(OC)c1OC [PODOFILOX]	> 100 µM
COc1ccc(/C(=C\c2ccc(OC(C)=O)c(OC)c2)C(=O)O[C@H]2c3cc4c(cc3[C@@H](c3cc(OC)c(OC)c(OC)c3)[C@H]3C(=O)OC[C@@H]32)OCO4)cc1OC	1.06 µM
COc1cccc2c1C(=O)c1c(O)c3c(c(O)c1C2=O)C[C@@](O)(C(=O)CO)C[C@@H]3O[C@H]1C[C@H](N)[C@H](O)[C@H](C)O1 [DOXORUBICIN]	4.06 µM
COc1cc([C@@H]2c3cc4c(cc3[C@H](OC(=O)C#Cc3ccccc3)[C@H]3COC(=O)[C@H]23)OCO4)cc(OC)c1OC	0.79 µM
COc1cc([C@@H]2c3cc4c(cc3[C@H](OC(=O)c3ccccc3Cl)[C@H]3COC(=O)[C@H]23)OCO4)cc(OC)c1OC	11.2 µM
COc1ccc(/C(=C\c2ccc(OC)c(OCc3ccccc3)c2)C(=O)O[C@H]2c3cc4c(cc3[C@@H](c3cc(OC)c(OC)c(OC)c3)[C@H]3C(=O)OC[C@@H]32)OCO4)cc1OC	33 µM
CC#CC(=O)O[C@H]1c2cc3c(cc2[C@@H](c2cc(OC)c(OC)c(OC)c2)[C@H]2C(=O)OC[C@@H]21)OCO3	1.71 µM

system: MCF7; assay: Cytotoxicity against human MCF7 cells after 48 hrs by MTT assay; assay type: functional, cell-based; settings: MCF7, 48 h

SMILES	IC50
COc1ccc(/C(=C\c2ccc(OCc3ccccc3)c(OC)c2)C(=O)O[C@H]2c3cc4c(cc3[C@@H](c3cc(OC)c(OC)c(OC)c3)[C@H]3C(=O)OC[C@@H]32)OCO4)cc1OC	20.3 µM
COc1ccc(/C(=C\c2ccc(OC(C)=O)c(OC)c2)C(=O)O[C@H]2c3cc4c(cc3[C@@H](c3cc(OC)c(OC)c(OC)c3)[C@H]3C(=O)OC[C@@H]32)OCO4)cc1OC	1.83 µM
COc1cc([C@@H]2c3cc4c(cc3[C@H](OC(=O)C#Cc3ccccc3)[C@H]3COC(=O)[C@H]23)OCO4)cc(OC)c1OC	1.23 µM
COc1cc([C@@H]2c3cc4c(cc3[C@H](OC(=O)c3ccccc3Cl)[C@H]3COC(=O)[C@H]23)OCO4)cc(OC)c1OC	19.5 µM
COc1ccc(/C(=C\c2ccc(OC)c(OCc3ccccc3)c2)C(=O)O[C@H]2c3cc4c(cc3[C@@H](c3cc(OC)c(OC)c(OC)c3)[C@H]3C(=O)OC[C@@H]32)OCO4)cc1OC	17.6 µM
CC#CC(=O)O[C@H]1c2cc3c(cc2[C@@H](c2cc(OC)c(OC)c(OC)c2)[C@H]2C(=O)OC[C@@H]21)OCO3	1.35 µM

system: A549; assay: Cytotoxicity against human A549 cells after 48 hrs by MTT assay; assay type: functional, cell-based; settings: A549, 48 h

SMILES	IC50
COc1ccc(/C(=C\c2ccc(OCc3ccccc3)c(OC)c2)C(=O)O[C@H]2c3cc4c(cc3[C@@H](c3cc(OC)c(OC)c(OC)c3)[C@H]3C(=O)OC[C@@H]32)OCO4)cc1OC	24.9 µM
COc1ccc(/C(=C\c2ccc(OC(C)=O)c(OC)c2)C(=O)O[C@H]2c3cc4c(cc3[C@@H](c3cc(OC)c(OC)c(OC)c3)[C@H]3C(=O)OC[C@@H]32)OCO4)cc1OC	0.91 µM
COc1cc([C@@H]2c3cc4c(cc3[C@H](OC(=O)C#Cc3ccccc3)[C@H]3COC(=O)[C@H]23)OCO4)cc(OC)c1OC	1.81 µM
COc1cc([C@@H]2c3cc4c(cc3[C@H](OC(=O)c3ccccc3Cl)[C@H]3COC(=O)[C@H]23)OCO4)cc(OC)c1OC	34.5 µM
COc1ccc(/C(=C\c2ccc(OC)c(OCc3ccccc3)c2)C(=O)O[C@H]2c3cc4c(cc3[C@@H](c3cc(OC)c(OC)c(OC)c3)[C@H]3C(=O)OC[C@@H]32)OCO4)cc1OC	17.5 µM
CC#CC(=O)O[C@H]1c2cc3c(cc2[C@@H](c2cc(OC)c(OC)c(OC)c2)[C@H]2C(=O)OC[C@@H]21)OCO3	1.03 µM

system: DU-145; assay: Cytotoxicity against human DU145 cells assessed as inhibition of colony formation at 2.5 uM after 3 days by microscopy; assay type: functional, cell-based; settings: not given

SMILES	inhibition
COc1cc([C@@H]2c3cc4c(cc3[C@H](OC(=O)C#Cc3ccccc3)[C@H]3COC(=O)[C@H]23)OCO4)cc(OC)c1OC	Active
CC#CC(=O)O[C@H]1c2cc3c(cc2[C@@H](c2cc(OC)c(OC)c(OC)c2)[C@H]2C(=O)OC[C@@H]21)OCO3	Active

system: DU-145; assay: Cell cycle arrest in human DU145 cells assessed as accumulation at G0/G1 phase at 2 uM after 48 hrs by propidium iodide staining-based flow cytometric analysis (reference value: 78.96%); assay type: functional; settings: not given

SMILES	Activity
COc1ccc(/C(=C\c2ccc(OC(C)=O)c(OC)c2)C(=O)O[C@H]2c3cc4c(cc3[C@@H](c3cc(OC)c(OC)c(OC)c3)[C@H]3C(=O)OC[C@@H]32)OCO4)cc1OC	42.8%

system: DU-145; assay: Cell cycle arrest in human DU145 cells assessed as accumulation at G2/M phase at 2 uM after 48 hrs by propidium iodide staining-based flow cytometric analysis (reference value: 15%); assay type: functional; settings: not given

SMILES	Activity
COc1ccc(/C(=C\c2ccc(OC(C)=O)c(OC)c2)C(=O)O[C@H]2c3cc4c(cc3[C@@H](c3cc(OC)c(OC)c(OC)c3)[C@H]3C(=O)OC[C@@H]32)OCO4)cc1OC	12.63%

system: DU-145; assay: Induction of apoptosis in human DU145 cells assessed as nuclear fragmentation at 2 uM after 24 hrs by Hoechst 33342 staining based confocal microscopy; assay type: functional, cell-based; settings: not given

SMILES	Activity
COc1cc([C@@H]2c3cc4c(cc3[C@H](OC(=O)C#Cc3ccccc3)[C@H]3COC(=O)[C@H]23)OCO4)cc(OC)c1OC	Active
CC#CC(=O)O[C@H]1c2cc3c(cc2[C@@H](c2cc(OC)c(OC)c(OC)c2)[C@H]2C(=O)OC[C@@H]21)OCO3	Active

system: DU-145; assay: Cell cycle arrest in human DU145 cells assessed as accumulation at sub-G1 phase at 2 uM after 48 hrs by propidium iodide staining-based flow cytometric analysis (reference value: 0.17%); assay type: functional; settings: not given

SMILES	Activity
COc1ccc(/C(=C\c2ccc(OC(C)=O)c(OC)c2)C(=O)O[C@H]2c3cc4c(cc3[C@@H](c3cc(OC)c(OC)c(OC)c3)[C@H]3C(=O)OC[C@@H]32)OCO4)cc1OC	38.88%

system: DU-145; assay: Cell cycle arrest in human DU145 cells assessed as accumulation at S phase at 2 uM after 48 hrs by propidium iodide staining-based flow cytometric analysis (reference value: 5.88%); assay type: functional; settings: not given

SMILES	Activity
COc1ccc(/C(=C\c2ccc(OC(C)=O)c(OC)c2)C(=O)O[C@H]2c3cc4c(cc3[C@@H](c3cc(OC)c(OC)c(OC)c3)[C@H]3C(=O)OC[C@@H]32)OCO4)cc1OC	5.69%

system: HepG2; assay: Cytotoxicity against human HepG2 cells after 48 hrs by MTT assay; assay type: functional, cell-based; settings: HepG2, 48 h

SMILES	IC50
COc1ccc(/C(=C\c2ccc(OCc3ccccc3)c(OC)c2)C(=O)O[C@H]2c3cc4c(cc3[C@@H](c3cc(OC)c(OC)c(OC)c3)[C@H]3C(=O)OC[C@@H]32)OCO4)cc1OC	28 µM
COc1ccc(/C(=C\c2ccc(OC(C)=O)c(OC)c2)C(=O)O[C@H]2c3cc4c(cc3[C@@H](c3cc(OC)c(OC)c(OC)c3)[C@H]3C(=O)OC[C@@H]32)OCO4)cc1OC	10.9 µM
COc1cccc2c1C(=O)c1c(O)c3c(c(O)c1C2=O)C[C@@](O)(C(=O)CO)C[C@@H]3O[C@H]1C[C@H](N)[C@H](O)[C@H](C)O1 [DOXORUBICIN]	3.82 µM
COc1cc([C@@H]2c3cc4c(cc3[C@H](OC(=O)C#Cc3ccccc3)[C@H]3COC(=O)[C@H]23)OCO4)cc(OC)c1OC	1.08 µM
COc1cc([C@@H]2c3cc4c(cc3[C@H](OC(=O)c3ccccc3Cl)[C@H]3COC(=O)[C@H]23)OCO4)cc(OC)c1OC	24.4 µM
COc1ccc(/C(=C\c2ccc(OC)c(OCc3ccccc3)c2)C(=O)O[C@H]2c3cc4c(cc3[C@@H](c3cc(OC)c(OC)c(OC)c3)[C@H]3C(=O)OC[C@@H]32)OCO4)cc1OC	22.9 µM
CC#CC(=O)O[C@H]1c2cc3c(cc2[C@@H](c2cc(OC)c(OC)c(OC)c2)[C@H]2C(=O)OC[C@@H]21)OCO3	1.47 µM

system: DU-145; assay: Cytotoxicity against human DU145 cells assessed as inhibition of colony formation at 5 uM after 3 days by microscopy; assay type: functional, cell-based; settings: not given

SMILES	inhibition
COc1ccc(/C(=C\c2ccc(OC(C)=O)c(OC)c2)C(=O)O[C@H]2c3cc4c(cc3[C@@H](c3cc(OC)c(OC)c(OC)c3)[C@H]3C(=O)OC[C@@H]32)OCO4)cc1OC	Active
COc1cc([C@@H]2c3cc4c(cc3[C@H](OC(=O)C#Cc3ccccc3)[C@H]3COC(=O)[C@H]23)OCO4)cc(OC)c1OC	Active
CC#CC(=O)O[C@H]1c2cc3c(cc2[C@@H](c2cc(OC)c(OC)c(OC)c2)[C@H]2C(=O)OC[C@@H]21)OCO3	Active

From ChEMBL document CHEMBL3352650, “Investigation of podophyllotoxin esters as potential anticancer agents: synthesis, biological studies and tubulin inhibition properties” (Eur J Med Chem, 2015)
